In patent publication US20250057857A1, “AQUEOUS PARENTERAL PHARMACEUTICAL FORMULATIONS CONTAINING 4-((2-HYDROXY-3-METHOXYBENZYL)AMINO) BENZENESULFONAMIDE DERIVATIVES” (Veralox Therapeutics Inc., priority 2021, published 2025):
Converted amounts (≈) assume the structure as drawn. One block for each compound: values may come before it.

Tests used:
Assay type in all cases: physicochemical
[1] = Aqueous solubility (general statements)
[2] = Solubility in HP-β-CD at high pH; details: 25% cyclodextrin solution, aqueous with cosolvent or surfactant or cyclodextrin
Experimental: Compound forms a metastable supersaturated solution when formulated with cyclodextrins. To assess for increased solubility, Compound 1 was added to a basic cyclodextrin solution to effect dissolution. The resulting solution was then adjusted with hydrochloric acid into a physiologically compatible pH range and subjected to kinetic solubility, equilibrium solubility, and formulation solubility analyses.
Kinetic solubility. […] The resulting intermediate pH values were approximately 12.5, which promoted rapid dissolution of Compound 1. However, the solutions are known to be chemically labile at higher pH values. The concentration of Compound 1 in subsequent formulation evaluations was lowered to 20 mg/mL and then reduced to 15 mg/mL.

[3] = Solubility measurement in solvents; details: for solubility at 2 h / solubility at 0.5 h: room temperature
Experimental: (§1) Solubility analysis of Compound 1 (N-(benzo[d]thiazol-2-yl)-4-((2-hydroxy-3-methoxybenzyl)amino)benzenesulfonamide) was performed in a total of 25 media including organic solvent, co-solvent, solubilizer and buffer, for 2 hours at room temperature.
(§2) HPLC method with acceptable resolution and main peak purity developed to determine solubility. The method is described in Table 3.
About 5 mg of Compound 1 was weighed to sample vial and 0.5 mL of solvent was added (target concentration was 10 mg/mL) with 30-100 μL per time. The samples were shaken at room temperature. The samples were prepared in duplicate (n=2) per medium and filtered at 0.5 and 2 hours. The supernatant was collected and analyzed by HPLC.

[4] = Solubility measurement in solubilizers (aqueous phosphate buffer at pH 7.4)
Experimental: as §1, §2
(§3) 5-10 mg of Compound 1 was added to 0.5-1 mL each medium (target concentration was 10 mg/mL), vortexed briefly to create a suspension. The samples were shaken at room temperature. The samples were prepared in duplicate (n=2) per medium and filtered at 0.5 and 2 hours. The supernatant was collected and analyzed by HPLC.

[5] = Solubility measurement in buffers over a pH range; details: thermodynamic from solid
Experimental: as §1, §2, §3

[6] = Comparative solubility in SBE-β-CD at pH 9.5; details: pH 9.5, 80 mg/mL, 22 hours stirring at room temperature
Experimental: For this study, 1.20 g of SBE-β-CD was weighed into a beaker and 1.31 mL of water was added. This mixture was stirred to dissolve solid completely. 0.846 g of 60% SBE-β-CD stock solution was weighed into a sample vial, and 1.53 mg of GLY, 70 μL of water, and 130 μL of 2N NaOH were added. This mixture was stirred for 10 minutes at room temperature to dissolve solid completely. 80.6 mg of Compound 1 was added (80 mg/mL) and the mixture was sonicated for 10 minutes followed by vigorous stirring for 22 hours at room temperature (23-25° C.).

[7] = pH 8.0, read-out: Solubility with 25% cyclodextrin at pH 8.0
[8] = pH 9.8, read-out: Solubility with 25% cyclodextrin at pH 9.8

Solubility in water [1]: poor solubility | solubility [2, 7]: ~20000 µg/mL (≈ 46900 µM) | solubility [2, 8]: ~40000 µg/mL (≈ 93800 µM)
SMILES: COc1cccc(CNc2ccc(S(=O)(=O)Nc3cccc(C(C)C)c3)cc2)c1O [Compound 3, 4-((2-hydroxy-3-methoxybenzyl)amino)-N-(3-isopropylphenyl)benzenesulfonamide]

solubility at 2 h ([3]; DMAC, 2 h, visual observation): Not precipitated | solubility at 0.5 h ([3]; DMAC, organic solvent or mixture, thermodynamic from solid, 0.5 h, visual observation): > 100000 µg/mL | solubility at 2 h ([3]; DMSO, 2 h, visual observation): Not precipitated | solubility at 0.5 h ([3]; DMSO, organic solvent or mixture, thermodynamic from solid, 0.5 h, visual observation): > 100000 µg/mL | solubility at 0.5 h ([3]; EtOH, organic solvent or mixture, thermodynamic from solid, 0.5 h): 290 µg/mL (≈ 657 µM) | solubility at 2 h ([3]; EtOH, organic solvent or mixture, thermodynamic from solid, EtOH, 2 h, read-out: Solubility at 2 h): 270 µg/mL (≈ 612 µM) | solubility at 0.5 h ([3]; Glycerin, organic solvent or mixture, thermodynamic from solid, 0.5 h): 13 µg/mL (≈ 29.4 µM) | solubility at 2 h ([3]; Glycerin, organic solvent or mixture, thermodynamic from solid, Glycerin, 2 h, read-out: Solubility at 2 h): 25 µg/mL (≈ 56.6 µM) | solubility at 2 h ([3]; NMP, 2 h, visual observation): Not precipitated | solubility at 0.5 h ([3]; NMP, organic solvent or mixture, thermodynamic from solid, 0.5 h, visual observation): > 100000 µg/mL | solubility at 0.5 h ([3]; PEG400, organic solvent or mixture, thermodynamic from solid, PEG400, 0.5 h): 4420 µg/mL (≈ 10000 µM) | solubility at 2 h ([3]; PEG400, organic solvent or mixture, thermodynamic from solid, PEG400, 2 h, solution was clear at 2 h, read-out: Solubility at 2 h): > 10000 µg/mL | solubility ([3]; PEG400, organic solvent or mixture, thermodynamic from solid, PEG400, span over 0.5 h and 2 h, read-out: Solubility in PEG400): 4000 to 10000 µg/mL (≈ 9060 to 22600 µM) | solubility at 0.5 h ([3]; PG, organic solvent or mixture, thermodynamic from solid, 0.5 h): 400 µg/mL (≈ 906 µM) | solubility at 2 h ([3]; PG, organic solvent or mixture, thermodynamic from solid, PG, 2 h, read-out: Solubility at 2 h): 420 µg/mL (≈ 951 µM) | solubility ([3]; hexane, organic solvent or mixture, thermodynamic from solid, hexane, non-polar solvent, read-out: Solubility in hexane): < 0.15 µg/mL | solubility at 0.5 h ([3]; n-Hexane, organic solvent or mixture, thermodynamic from solid, 0.5 h, LOQ = 0.00015 mg/mL): < 0.15 µg/mL | solubility at 2 h ([3]; n-Hexane, organic solvent or mixture, thermodynamic from solid, n-Hexane, 2 h, LOQ = 0.00015 mg/mL, read-out: Solubility at 2 h): < 0.15 µg/mL | solubility ([3]; solvents other than DMSO, DMAC, NMP and PEG400, organic solvent or mixture, thermodynamic from solid, solvents other than DMSO, DMAC, NMP and PEG400, read-out: Solubility in other solvents): < 1000 µg/mL | solubility at 0.5 h ([4]; 1% Tween 80 in phosphate buffer, pH 7.4, aqueous with cosolvent or surfactant or cyclodextrin, thermodynamic from solid, 1% Tween 80, phosphate buffer pH 7.4, 0.5 h): 20 µg/mL (≈ 45.3 µM) | solubility at 2 h ([4]; 1% Tween 80 in phosphate buffer, pH 7.4, aqueous with cosolvent or surfactant or cyclodextrin, thermodynamic from solid, 1% Tween 80, phosphate buffer pH 7.4, 2 h, read-out: Solubility at 2 h): 39 µg/mL (≈ 88.3 µM) | solubility at 0.5 h ([4]; 5% Cremophor RH40 in phosphate buffer, pH 7.4, aqueous with cosolvent or surfactant or cyclodextrin, thermodynamic from solid, 5% Cremophor RH40, phosphate buffer pH 7.4, 0.5 h): 47 µg/mL (≈ 106 µM) | solubility at 2 h ([4]; 5% Cremophor RH40 in phosphate buffer, pH 7.4, aqueous with cosolvent or surfactant or cyclodextrin, thermodynamic from solid, 5% Cremophor RH40, phosphate buffer pH 7.4, 2 h, read-out: Solubility at 2 h): 51 µg/mL (≈ 116 µM) | solubility at 0.5 h ([4]; 5% Solutol in phosphate buffer, pH 7.4, aqueous with cosolvent or surfactant or cyclodextrin, thermodynamic from solid, 5% Solutol, phosphate buffer pH 7.4, 0.5 h): 78 µg/mL (≈ 177 µM) | solubility at 2 h ([4]; 5% Solutol in phosphate buffer, pH 7.4, aqueous with cosolvent or surfactant or cyclodextrin, thermodynamic from solid, 5% Solutol, phosphate buffer pH 7.4, 2 h, read-out: Solubility at 2 h): ~100 µg/mL (≈ 226 µM) | solubility at 2 h ([4]; 5% Solutol, phosphate buffer pH 7.4, 2 h): 100 µg/mL (≈ 226 µM) | solubility at 0.5 h ([4]; 5% Tween 80 in phosphate buffer, pH 7.4, aqueous with cosolvent or surfactant or cyclodextrin, thermodynamic from solid, 5% Tween 80, phosphate buffer pH 7.4, 0.5 h): 41 µg/mL (≈ 92.9 µM) | solubility at 2 h ([4]; 5% Tween 80 in phosphate buffer, pH 7.4, aqueous with cosolvent or surfactant or cyclodextrin, thermodynamic from solid, 5% Tween 80, phosphate buffer pH 7.4, 2 h, read-out: Solubility at 2 h): 46 µg/mL (≈ 104 µM) | solubility at 0.5 h ([4]; 10% HP-β-CD in phosphate buffer, pH 7.4, aqueous with cosolvent or surfactant or cyclodextrin, thermodynamic from solid, 10% HP-β-CD, phosphate buffer pH 7.4, 0.5 h): 56 µg/mL (≈ 127 µM) | solubility at 2 h ([4]; 10% HP-β-CD in phosphate buffer, pH 7.4, aqueous with cosolvent or surfactant or cyclodextrin, thermodynamic from solid, 10% HP-β-CD, phosphate buffer pH 7.4, 2 h, read-out: Solubility at 2 h): 63 µg/mL (≈ 143 µM) | solubility at 0.5 h ([4]; 10% Tween 80 in phosphate buffer, pH 7.4, aqueous with cosolvent or surfactant or cyclodextrin, thermodynamic from solid, 10% Tween 80, phosphate buffer pH 7.4, 0.5 h): 76 µg/mL (≈ 172 µM) | solubility at 2 h ([4]; 10% Tween 80 in phosphate buffer, pH 7.4, aqueous with cosolvent or surfactant or cyclodextrin, thermodynamic from solid, 10% Tween 80, phosphate buffer pH 7.4, 2 h, read-out: Solubility at 2 h): 78 µg/mL (≈ 177 µM) | solubility at 0.5 h ([4]; 20% Captisol in phosphate buffer, pH 7.4, aqueous with cosolvent or surfactant or cyclodextrin, thermodynamic from solid, 20% Captisol, phosphate buffer pH 7.4, 0.5 h): 100 µg/mL (≈ 226 µM) | solubility at 2 h ([4]; 20% Captisol in phosphate buffer, pH 7.4, aqueous with cosolvent or surfactant or cyclodextrin, thermodynamic from solid, 20% Captisol, phosphate buffer pH 7.4, 2 h, read-out: Solubility at 2 h): 110 µg/mL (≈ 249 µM) | solubility at 0.5 h ([4]; 20% HP-β-CD in phosphate buffer, pH 7.4, aqueous with cosolvent or surfactant or cyclodextrin, thermodynamic from solid, 20% HP-β-CD, phosphate buffer pH 7.4, 0.5 h): 170 µg/mL (≈ 385 µM) | solubility at 2 h ([4]; 20% HP-β-CD in phosphate buffer, pH 7.4, aqueous with cosolvent or surfactant or cyclodextrin, thermodynamic from solid, 20% HP-β-CD, phosphate buffer pH 7.4, 2 h, read-out: Solubility at 2 h): 190 µg/mL (≈ 430 µM) | solubility at 0.5 h ([4]; 40% HP-β-CD in aqueous phosphate buffer pH 7.4, pH 7.4, aqueous with cosolvent or surfactant or cyclodextrin, thermodynamic from solid, 40% HP-β-CD, phosphate buffer pH 7.4, 0.5 h): 450 µg/mL (≈ 1020 µM) | solubility at 2 h ([4]; 40% HP-β-CD in phosphate buffer, pH 7.4, aqueous with cosolvent or surfactant or cyclodextrin, thermodynamic from solid, 40% HP-β-CD, phosphate buffer pH 7.4, 2 h, read-out: Solubility at 2 h): 570 µg/mL (≈ 1290 µM) | Increase of solubility with the increase of HP-β-CD from 10% to 40% ([4]; HP-β-CD 10% to 40%, pH 7.4): > 8 fold | solubility ([4]; HP-β-CD (range of contents) in aqueous phosphate buffer, pH 7.4, aqueous with cosolvent or surfactant or cyclodextrin, thermodynamic from solid, HP-β-CD, range over contents tested): 50 to 500 µg/mL (≈ 113 to 1130 µM) | Increase of solubility with the increase of Tween 80 from 1% to 10% ([4]; Tween 80 1% to 10%): about 4 fold | Solubility in HP-β-CD compared with Captisol (SBE-β-CD) ([4]; same concentration (20%)): nearly two times greater | solubility at 0.5 h ([5]; bicarbonate buffer pH 10.0, pH 10, aqueous buffer, Bicarbonate, pH 10.0, 0.5 h (measured pH 10.02)): 0.397 µg/mL (≈ 0.899 µM) | solubility at 2 h ([5]; bicarbonate buffer pH 10.0, pH 10, aqueous buffer, Bicarbonate, pH 10.0, 2 h (measured pH 10.08)): 0.576 µg/mL (≈ 1.31 µM) | solubility ([5]; pH 10 buffer, pH 10, aqueous buffer, pH 10, read-out: Solubility in pH 10 buffer): 0.4 to 0.6 µg/mL (≈ 0.906 to 1.36 µM) | solubility ([5]; pH buffers, pH 1, aqueous buffer, pH 1-9 buffers, main peak not detected by HPLC, read-out: Solubility in pH buffers, pH 1-9): < 0.15 µg/mL | Dissolution in SBE-β-CD, visual observation [6]: Little, if any, dissolution | Solubility in water [1]: poor solubility | solubility [2, 7]: ~20000 µg/mL (≈ 45300 µM) | solubility [2, 8]: ~40000 µg/mL (≈ 90600 µM)
SMILES: COc1cccc(CNc2ccc(S(=O)(=O)Nc3nc4ccccc4s3)cc2)c1O [Compound 1, N-(benzo[d]thiazol-2-yl)-4-((2-hydroxy-3-methoxybenzyl)amino)benzenesulfonamide]

Solubility in water [1]: poor solubility | solubility [2, 7]: ~20000 µg/mL (≈ 47000 µM) | solubility [2, 8]: ~40000 µg/mL (≈ 94000 µM)
SMILES: COc1cccc(CNc2ccc(S(=O)(=O)Nc3nc4ccccc4o3)cc2)c1O [Compound 2, N-(benzo[d]oxazol-2-yl)-4-((2-hydroxy-3-methoxybenzyl)amino)benzenesulfonamide]
